Laboratory results from BindingDB's records for doi:10.1021/acs.jmedchem.8b01719 (Glaxosmithkline, 2019).

How the values were obtained:
[1] = Inhibition of HCV genotype 1b NS5B RNA dependent RNA polymerase C316N mutant infected in human HuH7 Lunet replicon cells assessed as reduction in viral replication after 48 hrs by steady-glo luciferase reporter gene assay
[2] = Inhibition of HCV genotype 1a NS5B RNA dependent RNA polymerase C316Y mutant transfected in human HuH7 Lunet replicon cells assessed as reduction in viral replication after 3 days by steady-glo luciferase reporter gene assay
[3] = Inhibition of HCV genotype 1b wild-type NS5B RNA dependent RNA polymerase infected in human HuH7 Lunet replicon cells assessed as reduction in viral replication after 48 hrs by steady-glo luciferase reporter gene assay
[4] = Inhibition of HCV genotype 1a wild-type NS5B RNA dependent RNA polymerase transfected in human HuH7 Lunet replicon cells assessed as reduction in viral replication after 3 days by steady-glo luciferase reporter gene assay

| SMILES | EC50 [1] [nM] | EC50 [2] [nM] | EC50 [3] [nM] | EC50 [4] [nM] |
| --- | --- | --- | --- | --- |
| CNC(=O)c1c(-c2ccc(F)cc2)oc2cc(N(c3cc(Cl)c4c(c3)COB4O)S(C)(=O)=O)c(C3CC3)cc12 | 2.5 | 32 | 2.5 | 1.3 |
| CNC(=O)c1c(-c2ccc(F)cc2)oc2cc(N3C(=O)OC[C@@H]3c3ccc(B(O)O)c(F)c3)c(C3CC3)cc12 | 5 | 24 | 2 | 2.6 |
| CNC(=O)c1c(-c2ccc(F)cc2)oc2cc(N(c3ccc(B(O)O)cc3)S(C)(=O)=O)c(C3CC3)cc12 | 6.3 | 290 | 2.5 | 0.9 |
| CNC(=O)c1c(-c2ccc(F)cc2)oc2cc(N(c3ccc(B(O)O)c(C(F)(F)F)c3)S(C)(=O)=O)c(C3CC3)cc12 | 7.9 | 17 | 4 | 1.1 |
| CNC(=O)c1c(-c2ccc(F)cc2)oc2cc(N3C(=O)OCC3c3ccc(B(O)O)cc3)c(C3CC3)cc12 (centres undefined) | 200 | 2000 | 16 | 8.3 |
| CNC(=O)c1c(-c2ccc(F)cc2)oc2cc(-c3ncnn3-c3ccc(B(O)O)c(F)c3)c(C3CC3)cc12 | 4 | 24 | 2 | 1.2 |
| CNC(=O)c1c(-c2ccc(F)cc2)oc2cc(-n3nccc3-c3ccc(B(O)O)c(F)c3)c(C3CC3)cc12 | 7.9 | 20 | 4 | 2.3 |
| CNC(=O)c1c(-c2ccc(F)cc2)oc2cc(-c3ncoc3-c3ccc(B(O)O)c(F)c3)c(C3CC3)cc12 | 6.3 | 30 | 4 | 3.4 |
| CNC(=O)c1c(-c2ccc(F)cc2)oc2cc(N3C(=O)OCCC3c3ccc(B(O)O)cc3)c(C3CC3)cc12 (centres undefined) | 400 | 310 | 50 | 56 |
| CNC(=O)c1c(-c2ccc(F)cc2)oc2cc(N3C(=O)OC[C@@H]3c3cccc(F)c3)c(C3CC3)cc12 | > 5000 | > 5000 | 1600 | 290 |
| CNC(=O)c1c(-c2ccc(F)cc2)oc2cc(-n3ncnc3-c3ccc(B(O)O)c(F)c3)c(C3CC3)cc12 | 6.3 | 46 | 2 | 1.1 |
| CNC(=O)c1c(-c2ccc(F)cc2)oc2cc(-n3nnnc3-c3ccc(B(O)O)c(Cl)c3)c(C3CC3)cc12 | 40 | 660 | 5 | 3.8 |
| CNC(=O)c1c(-c2ccc(F)cc2)oc2cc(N(c3cccc(B(O)O)c3)S(C)(=O)=O)c(C3CC3)cc12 | 63 | 1900 | 6.3 | 2.2 |
| CNC(=O)c1c(-c2ccc(F)cc2)oc2cc(N(c3ccc(B(O)O)c(F)c3)S(C)(=O)=O)c(C3CC3)cc12 | 3.2 | 39 | 2 | 1 |
| CNC(=O)c1c(-c2ccc(F)cc2)oc2cc(N(Cc3ccc(B(O)O)cc3C(F)(F)F)S(C)(=O)=O)c(C3CC3)cc12 | 19 | – | 5 | – |
| CNC(=O)c1c(-c2ccc(F)cc2)oc2cc(N(C3CCCc4cc(B(O)O)ccc43)S(C)(=O)=O)c(C3CC3)cc12 (centres undefined) | 250 | > 5000 | 100 | 28 |
| CNC(=O)c1c(-c2ccc(F)cc2)oc2cc(N(C3CCc4c(B(O)O)cccc43)S(C)(=O)=O)c(C3CC3)cc12 (centres undefined) | 320 | 1200 | 40 | 11 |
| CNC(=O)c1c(-c2ccc(F)cc2)oc2cc(N3C(=O)CCC3c3ccc(B(O)O)cc3)c(C3CC3)cc12 (centres undefined) | 790 | – | 63 | – |
| CNC(=O)c1c(-c2ccc(F)cc2)oc2cc(N3C(=O)OCC3c3cccc(B(O)O)c3)c(C3CC3)cc12 (centres undefined) | 1600 | – | 100 | – |
| CNC(=O)c1c(-c2ccc(F)cc2)oc2cc(N3C(=O)OC[C@H]3c3ccc(B(O)O)c(F)c3)c(C3CC3)cc12 | 1600 | > 5000 | 200 | 140 |
| CNC(=O)c1c(-c2ccc(F)cc2)oc2cc(-n3ccnc3-c3ccc(B(O)O)c(F)c3)c(C3CC3)cc12 | 400 | 2000 | 50 | 18 |
| CNC(=O)c1c(-c2ccc(F)cc2)oc2cc(-n3nc(C)nc3-c3ccc(B(O)O)c(F)c3)c(C3CC3)cc12 | 400 | 630 | 13 | 6 |
| CNC(=O)c1c(-c2ccc(F)cc2)oc2cc(N3C(=O)NCC3c3ccc(B(O)O)cc3)c(C3CC3)cc12 (centres undefined) | 3200 | – | 250 | – |
| CNC(=O)c1c(-c2ccc(F)cc2)oc2cc(N(c3ccc(B(O)O)c(Cl)c3)S(C)(=O)=O)c(C3CC3)cc12 | 4 | 11 | 2.5 | 1.2 |
| CNC(=O)c1c(-c2ccc(F)cc2)oc2cc(N(C3CCc4cc(B(O)O)ccc43)S(C)(=O)=O)c(C3CC3)cc12 (centres undefined) | 500 | 4400 | 50 | 9.2 |
| CNC(=O)c1c(-c2ccc(F)cc2)oc2cc(N(C(C)c3ccc4c(c3)COB4O)S(C)(=O)=O)c(C3CC3)cc12 (centres undefined) | 830 | – | 25 | – |
